Key:
Experiment in all cases: combination Emax (second highest fraction inhibited in the dose matrix, 72 h); higher = more inhibition; extreme values may be limits of the assay
[1] = tested on: ALL-PO (B-Lymphoblastic Leukemia)
Summary of the method: (§1)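 After 24 hours at 37°C and 5% CO2 in 1536-well plates, cells in DMEM/F12 or RPMI plus 10% FBS received two-drug dose matrices for 72 hours. Viability came from CellTiter-Glo 2.0 luminescence and was scaled as inhibition, anchored at 0 by vehicle wells and at 1 by blank wells. Combination Emax is taken as the second-highest inhibition in the matrix, and Bliss excess as the observed combination effect less EA + EB − EA·EB, with EA and EB the single-agent effects.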

[2] = tested on: L-428 (Hodgkin's Lymphoma)
Summary of the method: as §1

[3] = tested on: BFTC-909 (Kidney Carcinoma)
Summary of the method: as §1

[4] = tested on: NCI-H209 (Small Cell Lung Carcinoma)
Summary of the method: as §1

[5] = tested on: TGBC1TKB (Biliary Tract Carcinoma)
Summary of the method: as §1

[6] = tested on: YAPC (Pancreatic Carcinoma)
Summary of the method: as §1

[7] = tested on: LCLC-97TM1 (Non-Small Cell Lung Carcinoma)
Summary of the method: as §1

GAMG (Glioblastoma) = tested on: GAMG (Glioblastoma)
Summary of the method: as §1

[8] = tested on: Hs-746T (Gastric Carcinoma)
Summary of the method: as §1

KS-1 (Glioblastoma) = tested on: KS-1 (Glioblastoma)
Summary of the method: as §1

SMILES	combination Emax [1]	combination Emax [2]	combination Emax [3]	combination Emax [4]	combination Emax [5]	combination Emax [6]	combination Emax [7]	combination Emax (GAMG (Glioblastoma))	combination Emax [8]	combination Emax (KS-1 (Glioblastoma))
Cc1c2c(nn1C)CSCc1cc(n(C)n1)CSc1cc(c3ccccc3c1)OCCCc1c(C(=O)O)n(C)c3c-2c(Cl)ccc13 [AZD5991] + Cn1cnc2c(F)c(Nc3ccc(Br)cc3Cl)c(C(=O)NOCCO)cc21 [Selumetinib] (first compound max 1 µM, 7x7, partner max 3 µM)	1	0.0936	0.3	0.402	0.187	0.209	0.694	0.299	0.422	0.31
NC1(C(=O)N[C@@H](CCO)c2ccc(Cl)cc2)CCN(c2ncnc3[nH]ccc23)CC1 [Capivasertib] + CC(=O)c1c(C)c2cnc(Nc3ccc(N4CCNCC4)cn3)nc2n(C2CCCC2)c1=O [Palbociclib] (first compound max 10 µM, 7x7, partner max 10 µM)	0.688	0.436	0.704	0.603	0.344	0.281	0.583	0.596	0.588	0.5
NC1(C(=O)N[C@@H](CCO)c2ccc(Cl)cc2)CCN(c2ncnc3[nH]ccc23)CC1 [Capivasertib] + CC(C)n1c(=O)n(C)c2cnc3cc(F)c(-c4ccc(OCCCN5CCCCC5)nc4)cc3c21 [AZD1390] (first compound max 10 µM, 7x7, partner max 0.3 µM)	0.521	0.162	0.622	0.17	0.358	0.223	0.392	0.512	0.332	0.323
NC1(C(=O)N[C@@H](CCO)c2ccc(Cl)cc2)CCN(c2ncnc3[nH]ccc23)CC1 [Capivasertib] + CCN(CCO)CCCOc1ccc2c(Nc3cc(CC(=O)Nc4cccc(F)c4)[nH]n3)ncnc2c1 [AZD2811] (first compound max 10 µM, 7x7, partner max 1 µM)	1	0.302	0.638	0.428	0.298	0.233	0.686	0.669	0.403	0.547
NC1(C(=O)N[C@@H](CCO)c2ccc(Cl)cc2)CCN(c2ncnc3[nH]ccc23)CC1 [Capivasertib] + COc1nnc2ccc(N3CCC(c4ccc(OCCN5CCN(C)C(=O)[C@H]5C)cc4)CC3)nn12 [AZD5153] (first compound max 10 µM, 7x7, partner max 1 µM)	0.9	0.742	0.678	0.539	0.39	0.309	0.805	0.724	0.599	0.755
NC1(C(=O)N[C@@H](CCO)c2ccc(Cl)cc2)CCN(c2ncnc3[nH]ccc23)CC1 [Capivasertib] + C[C@@H]1COCCN1C2=NC(=NC(=C2)C3(CC3)[S@](=N)(=O)C)C4=C5C=CNC5=NC=C4 [AZD6738] (first compound max 10 µM, 7x7, partner max 10 µM)	0.99	0.77	0.869	0.9	0.559	0.334	0.873	0.705	0.582	0.653
NC1(C(=O)N[C@@H](CCO)c2ccc(Cl)cc2)CCN(c2ncnc3[nH]ccc23)CC1 [Capivasertib] + Cn1cnc2c(F)c(Nc3ccc(Br)cc3Cl)c(C(=O)NOCCO)cc21 [Selumetinib] (first compound max 10 µM, 7x7, partner max 10 µM)	0.726	0.126	0.734	0.163	0.475	0.346	0.849	0.653	0.691	0.551
CS(=O)(=O)CCNCc1ccc(-c2ccc3ncnc(Nc4ccc(OCc5cccc(F)c5)c(Cl)c4)c3c2)o1 [Lapatinib] + C[C@@H](Oc1cc(-c2cnn(C3CCNCC3)c2)cnc1N)c1c(Cl)ccc(F)c1Cl [Crizotinib] (first compound max 10 µM, 7x7, partner max 10 µM)	1	0.913	0.869	0.927	0.616	0.636	0.979	0.82	0.876	0.79
CC(=O)c1c(C)c2cnc(Nc3ccc(N4CCNCC4)cn3)nc2n(C2CCCC2)c1=O [Palbociclib] + CC1(C)CCC(CN2CCN(c3ccc(C(=O)NS(=O)(=O)c4ccc(NCC5CCOCC5)c([N+](=O)[O-])c4)c(Oc4cnc5[nH]ccc5c4)c3)CC2)=C(c2ccc(Cl)cc2)C1 [Venetoclax] (first compound max 10 µM, 7x7, partner max 1 µM)	0.931	0.467	0.326	0.921	0.033	0.165	0.176	0.231	0.24	0.348
CC(=O)c1c(C)c2cnc(Nc3ccc(N4CCNCC4)cn3)nc2n(C2CCCC2)c1=O [Palbociclib] + Cc1c2c(nn1C)CSCc1cc(n(C)n1)CSc1cc(c3ccccc3c1)OCCCc1c(C(=O)O)n(C)c3c-2c(Cl)ccc13 [AZD5991] (first compound max 10 µM, 7x7, partner max 1 µM)	1	0.353	0.406	0.908	0.164	0.288	0.263	0.305	0.299	0.266
CC(=O)c1c(C)c2cnc(Nc3ccc(N4CCNCC4)cn3)nc2n(C2CCCC2)c1=O [Palbociclib] + Cn1cnc2c(F)c(Nc3ccc(Br)cc3Cl)c(C(=O)NOCCO)cc21 [Selumetinib] (first compound max 10 µM, 7x7, partner max 10 µM)	0.697	0.395	0.358	0.594	0.167	0.379	0.64	0.314	0.49	0.438
Cn1cnc2c(F)c(Nc3ccc(Br)cc3Cl)c(C(=O)NOCCO)cc21 [Selumetinib] + C=CCn1c(=O)c2cnc(Nc3ccc(N4CCN(C)CC4)cc3)nc2n1-c1cccc(C(C)(C)O)n1 [AZD1775] (first compound max 10 µM, partner max 1 µM)	0.978	0.808	0.646	0.858	0.233	0.396	0.87	0.527	0.636	0.277
Cn1cnc2c(F)c(Nc3ccc(Br)cc3Cl)c(C(=O)NOCCO)cc21 [Selumetinib] + CC(C)n1c(=O)n(C)c2cnc3cc(F)c(-c4ccc(OCCCN5CCCCC5)nc4)cc3c21 [AZD1390] (first compound max 10 µM, 7x7, partner max 0.3 µM)	0.301	0.0975	0.184	0.0904	0.152	0.193	0.528	0.151	0.411	0.197
Cn1cnc2c(F)c(Nc3ccc(Br)cc3Cl)c(C(=O)NOCCO)cc21 [Selumetinib] + CCN(CCO)CCCOc1ccc2c(Nc3cc(CC(=O)Nc4cccc(F)c4)[nH]n3)ncnc2c1 [AZD2811] (first compound max 10 µM, 7x7, partner max 1 µM)	1	0.235	0.314	0.431	0.211	0.212	0.647	0.52	0.478	0.298
Cn1cnc2c(F)c(Nc3ccc(Br)cc3Cl)c(C(=O)NOCCO)cc21 [Selumetinib] + C[C@@H]1COCCN1C2=NC(=NC(=C2)C3(CC3)[S@](=N)(=O)C)C4=C5C=CNC5=NC=C4 [AZD6738] (first compound max 10 µM, 7x7, partner max 10 µM)	0.96	0.69	0.797	0.878	0.347	0.22	0.756	0.469	0.579	0.334
CC(=O)Nc1cccc(-n2c(=O)n(C3CC3)c(=O)c3c(Nc4ccc(I)cc4F)n(C)c(=O)c(C)c32)c1 [Trametinib] + Cc1nc(-c2cn3c(n2)-c2ccc(-c4cnn(C(C)(C)C(N)=O)c4)cc2OCC3)n(C(C)C)n1 [Taselisib] (first compound max 1 µM, 7x7, partner max 10 µM)	0.795	0.204	0.781	0.218	0.933	0.733	1	0.783	0.606	0.832
CC1(C)CCC(CN2CCN(c3ccc(C(=O)NS(=O)(=O)c4ccc(NCC5CCOCC5)c([N+](=O)[O-])c4)c(Oc4cnc5[nH]ccc5c4)c3)CC2)=C(c2ccc(Cl)cc2)C1 [Venetoclax] + C1CN(CCC1(C(=O)N[C@@H](CCO)C2=CC=C(C=C2)Cl)N)C3=NC=NC4=C3C=CN4 [Capivasertib] (first compound max 1 µM, 7x7, partner max 3 µM)	0.669	0.0426	0.554	0.456	0.309	0.124	0.298	0.505	0.275	0.303
CC1(C)CCC(CN2CCN(c3ccc(C(=O)NS(=O)(=O)c4ccc(NCC5CCOCC5)c([N+](=O)[O-])c4)c(Oc4cnc5[nH]ccc5c4)c3)CC2)=C(c2ccc(Cl)cc2)C1 [Venetoclax] + C=CCn1c(=O)c2cnc(Nc3ccc(N4CCN(C)CC4)cc3)nc2n1-c1cccc(C(C)(C)O)n1 [AZD1775] (first compound max 1 µM, partner max 1 µM)	1	0.851	0.667	0.978	0.35	0.307	0.891	0.836	0.481	0.504
CC1(C)CCC(CN2CCN(c3ccc(C(=O)NS(=O)(=O)c4ccc(NCC5CCOCC5)c([N+](=O)[O-])c4)c(Oc4cnc5[nH]ccc5c4)c3)CC2)=C(c2ccc(Cl)cc2)C1 [Venetoclax] + CCN(CCO)CCCOc1ccc2c(Nc3cc(CC(=O)Nc4cccc(F)c4)[nH]n3)ncnc2c1 [AZD2811] (first compound max 1 µM, 7x7, partner max 1 µM)	1	0.296	0.215	0.974	0.208	0.157	0.289	0.598	0.161	0.341
